Measurements from patent US20050222247A1, “Chroman derivatives” (Bayer HealthCare AG, priority 2003, published 2005).
Where a name gives a salt, the structure may show the parent alone.

How the values were obtained:
β3-adrenoceptor [1] = molecular target: T1, β3-adrenoceptor (Homo sapiens, UniProt P13945); test: Measurement of cAMP production in SK-N-MC cells (Assay 1 - Method A); type: cell-based; conditions: 1 μM CGP20712A, read-out: Beta-3 EC50
T1 construct: which endogenously express β1- and β3-adrenoceptors; endogenous in cells; host or cells: SK-N-MC human neuroblastoma cells
Procedure: Measurement of cAMP Production in SK-N-MC Cells (Assay 1—Method A)
Human neuroblastoma cell line, SK-N-MC, which endogenously express β1- and β3-adrenoceptors was utilized. In the presence of 1 μM of […] selective antagonist, CGP20712A, the effects of the compounds on cAMP levels were examined. SK-N-MC cells were suspended in Hank's balanced salt solution containing 20 mM Hepes, 0.1% BSA, 1 mM L-ascorbic acid sodium salt, 250 nM IBMX, and 1 μM CGP20712A (pH 7.4). After incubating at 37° C. for 30 min, the compound of the present invention was added and cells were further incubated for 30 min. Total cAMP in the well was measured by cAMP ELISA kit (Tropix, Bedford, Mass.). Effect of the compound on the cAMP level was determined at 6 different concentrations from 0.1 nM to 10 μM. The concentration to induce 50% of maximum response, 50% effective concentration (EC50), was calculated. In addition, intrinsic activity (IA) was determined as a maximum response induced by each compound, and IA was expressed as relative value compared with a response induced by 10 μM isoproterenol (i.e. cAMP level increased by 10 μM isoproterenol was taken as 100%).

human β2-adrenoceptor [2] = molecular target: T2, human β2-adrenoceptor (Homo sapiens, UniProt P07550); test: Agonistic activity, cAMP levels in CHO cells (Assay 2 - Method A); type: cell-based; conditions: agonist, hβ2-CHO cells, read-out: Beta-2 EC50
T2 construct: expressed in transfected cells; host or cells: Chinese hamster ovary (CHO) cells (hβ2-CHO)
Procedure: (§1) Measurement of Agonistic Activity for Human β1-Adrenoceptor Or Human β2-Adrenoceptor (Assay 2—Method A)
(§2) The agonistic activity of the compound to human […] was examined by measurement of cAMP levels in Chinese hamster ovary (CHO) cells, in which recombinant human […] was expressed (hβ2-CHO cells). The hβ2-CHO cells were suspended in Hank's balanced salt solution containing 20 mM Hepes, 0.1% BSA, 1 mM L-ascorbic acid sodium salt, and 250 nM IBMX (pH 7.4). After incubating at 37° C. for 30 min, the compound of the present invention was added and cells were further incubated for 30 min. Total cAMP in the well was measured by cAMP ELISA kit (Tropix, Bedford, Mass.). The effect of the compound on the cAMP level was determined at 6 different concentrations from 0.1 nM to 10 μM. The concentration to induce 50% of maximum response, 50% effective concentration (EC50), was calculated. In addition, intrinsic activity (IA) was determined as a maximum response induced by each compound, and IA was expressed as relative value compared with a response induced by 10 μM isoproterenol (i.e. cAMP level increased by 10 μM isoproterenol was taken as 100%). Experiments with the same methods were performed in CHO cells expressing recombinant human β1-adrenoceptor to examine the effects of the compounds on human β1-adrenoceptor.

β3-adrenoceptor [3] = molecular target: T1, β3-adrenoceptor; test: Measurement of cAMP production in SK-N-MC cells (Assay 1 - Method B); type: cell-based; conditions: 1 μM Atenolol, read-out: Beta-3 EC50
Procedure: Measurement of cAMP production in SK-N-MC Cells (Assay 1—Method B)
Human neuroblastoma cell line, SK-N-MC, which endogenously express […] were utilized. In the presence or absence of 1 μM of β1-adrenoceptor selective antagonist, Atenolol, the effects of the compounds on cAMP levels were examined. SK-N-MC cells were suspended in Hank's balanced salt solution containing 20 mM Hepes, 0.1% BSA, 1 mM L-ascorbic acid sodium salt, 250 nM IBMX, and 1 μM Atenolol (pH 7.4). After incubating at 37° C. for 1 h, the compound of the present invention was added and cells were further incubated for 30 min. Total cAMP in the well was measured by cAMP ELISA kit (Tropix, Bedford, Mass.). Effect of the compound on the cAMP level was determined at 8 different concentrations from 1 pM to 10 μM. The concentration to induce 50% of maximum response, 50% effective concentration (EC50), was calculated.

human β1-adrenoceptor [4] = molecular target: T3, human β1-adrenoceptor (Homo sapiens, UniProt P08588); test: Agonistic activity, calcium influx in CHO cells (Assay 2 - Method B); type: cell-based; conditions: agonist, CHO cells expressing recombinant human β1-adrenoceptor, read-out: Beta-1 EC50
T3 construct: expressed in transfected cells; host or cells: Chinese hamster ovary (CHO) cells
Text: (§3) Measurement of Agonistic Activity for Human β1-Adrenoceptor or Human β2-Adrenoceptor (Assay 2—Method B)
(§4) The agonistic activity of the compound to human β2-adrenoceptor was examined by measurement of calcium influx in Chinese hamster ovary (CHO) cells, in which recombinant human β2-adrenoceptor was expressed (hβ2-CHO cells). The cells were cultivated in DMEM F12 medium. Prior to measurement, the cells were loaded with Coelenterazine (1:2000) in Ca-Tyrode. The Ca-influx was directly measured for 45 sec (Hamamatsu FluoroBox fluorescence detector). The effect of the compound on calcium influx was determined at 8 different concentrations from 1 pM to 10 μM. The concentration to induce 50% of maximum response, 50% effective concentration (EC50), was calculated. Experiments with the same methods were performed in CHO cells expressing recombinant human β1-adrenoceptor to examine the effects of the compounds on human β1-adrenoceptor.

human β2-adrenoceptor [5] = molecular target: T2, human β2-adrenoceptor; test: as above; type: cell-based; conditions: agonist, hβ2-CHO cells, read-out: Beta-2 EC50
Text: as §3, §4

human β1-adrenoceptor [6] = molecular target: T3, human β1-adrenoceptor; test: Agonistic activity, cAMP levels in CHO cells (Assay 2 - Method A); type: cell-based; conditions: agonist, CHO cells expressing recombinant human β1-adrenoceptor, read-out: Beta-1 EC50
Procedure: as §1, §2

human β1-adrenoceptor [7] = molecular target: T3, human β1-adrenoceptor; test: Antagonistic activity, isoproterenol-induced cAMP production in CHO cells (Assay 3); type: cell-based; conditions: antagonist; inhibition of cAMP production induced by 100 nM isoproterenol, CHO cells expressing human β1-adrenoceptor; read-out: Beta-1 IC50
Procedure: (§5) Measurement of Antagonistic Activity for Human […] (Assay 3)
(§6) The antagonistic activity of the compound to human β2-adrenoceptor was examined by measurement of cAMP levels in the hβ2-CHO cells stimulated by isoproterenol. The hβ2-CHO cells were suspended in Hank's balanced salt solution containing 20 mM Hepes, 0.1% BSA, 1 mM L-ascorbic acid sodium salt, and 250 nM IBMX (pH 7.4). The cells were stimulated by non-selective β-adrenoceptor agonist isoproterenol at 100 nM to increase cAMP levels. After incubating at 37° C. for 30 min, the compound of the present invention was added and cells were further incubated for 30 min. Total cAMP in the well was measured by cAMP ELISA kit (Tropix, Bedford, Mass.). Inhibitory effect of the compound on the isoproterenol-induced cAMP production was determined at 6 different concentrations from 0.1 nM to 10 μM. The concentration to induce 50% of inhibitory response, 50% inhibitory concentration (IC50), was calculated. Experiments with the same methods were performed in CHO cells expressing recombinant human β1-adrenoceptor to examine the effects of the compounds on human β1-adrenoceptor.

human β2-adrenoceptor [8] = molecular target: T2, human β2-adrenoceptor; test: as above; type: cell-based; conditions: antagonist; inhibition of cAMP production induced by 100 nM isoproterenol, hβ2-CHO cells; read-out: Beta-2 IC50
Procedure: as §5, §6

T1 sequence (P13945 whole entry): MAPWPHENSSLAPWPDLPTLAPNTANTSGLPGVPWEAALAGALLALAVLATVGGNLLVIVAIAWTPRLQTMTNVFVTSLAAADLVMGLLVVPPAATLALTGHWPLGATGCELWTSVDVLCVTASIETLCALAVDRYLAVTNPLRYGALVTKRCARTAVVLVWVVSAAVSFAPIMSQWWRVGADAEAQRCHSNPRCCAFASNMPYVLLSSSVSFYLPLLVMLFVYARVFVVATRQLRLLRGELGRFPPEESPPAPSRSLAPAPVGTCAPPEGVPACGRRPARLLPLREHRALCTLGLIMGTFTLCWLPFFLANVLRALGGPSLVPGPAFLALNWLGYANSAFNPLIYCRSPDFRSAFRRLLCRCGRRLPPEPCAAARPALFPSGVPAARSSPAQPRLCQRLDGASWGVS
T3 sequence (P08588 whole entry): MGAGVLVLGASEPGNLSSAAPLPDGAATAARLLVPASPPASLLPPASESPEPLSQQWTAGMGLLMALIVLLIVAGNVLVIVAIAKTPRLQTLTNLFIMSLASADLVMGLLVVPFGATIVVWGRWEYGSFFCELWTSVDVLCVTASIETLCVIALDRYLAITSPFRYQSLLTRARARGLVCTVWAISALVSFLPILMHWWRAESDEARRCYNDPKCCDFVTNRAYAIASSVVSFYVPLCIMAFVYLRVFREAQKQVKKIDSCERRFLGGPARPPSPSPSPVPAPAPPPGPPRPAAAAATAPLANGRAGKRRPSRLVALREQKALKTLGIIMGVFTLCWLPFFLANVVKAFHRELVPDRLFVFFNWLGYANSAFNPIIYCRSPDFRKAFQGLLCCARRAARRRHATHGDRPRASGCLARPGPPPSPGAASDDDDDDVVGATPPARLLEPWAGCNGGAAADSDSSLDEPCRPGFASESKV
T2 sequence (P07550 whole entry): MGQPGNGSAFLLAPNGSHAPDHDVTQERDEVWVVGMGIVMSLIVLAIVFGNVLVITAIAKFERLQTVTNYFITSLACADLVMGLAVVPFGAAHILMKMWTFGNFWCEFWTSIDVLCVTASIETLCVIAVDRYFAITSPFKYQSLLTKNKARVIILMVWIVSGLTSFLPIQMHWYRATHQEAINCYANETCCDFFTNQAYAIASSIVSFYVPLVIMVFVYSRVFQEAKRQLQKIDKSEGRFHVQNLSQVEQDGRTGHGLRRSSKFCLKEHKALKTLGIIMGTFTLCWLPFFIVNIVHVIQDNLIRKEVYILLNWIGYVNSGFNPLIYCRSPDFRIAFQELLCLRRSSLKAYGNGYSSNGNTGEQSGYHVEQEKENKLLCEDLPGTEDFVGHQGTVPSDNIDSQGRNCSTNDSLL

In the case of `O=C(O)c1ccccc1Oc1ccc2c(c1)CC[C@H](CNC[C@H](O)COc1ccccc1F)O2` [Example 36], the melting point is reported as 209 °C.
In the case of `CN(c1ccc(C(=O)O)cc1)c1ccc2c(c1)CC[C@H](CNC[C@H](O)COc1ccccc1)O2` [Example 2, 4-[[(2R)-2-({[(2S)-2-hydroxy-3-phenoxypropyl]amino}methyl)-3,4-dihydro-2H-chromen-6-yl](methyl)amino]benzoic acid hydrochloride], the EC50 (β3-adrenoceptor [1]) is reported as 14 nM.
`O=C(O)c1ccccc1Oc1ccc2c(c1)CC[C@H](CNC[C@H](O)COc1c(F)cccc1F)O2` [Example 41] gave a melting point of 196 to 198 °C.
`CC(C)(C)c1cc(C(=O)O)ccc1Oc1ccc2c(c1)CC[C@H](CNC[C@H](O)COc1ccccc1)O2` [Example 23] showed an EC50 (human β2-adrenoceptor [2]) greater than 10 µM.
With `O=C(O)c1cc(F)ccc1Oc1ccc2c(c1)CC[C@H](CNC[C@H](O)COc1ccccc1)O2` [Example 44, 5-fluoro-2-{[(2R)-2-({[(2S)-2-hydroxy-3-phenoxypropyl]amino}methyl)-3,4-dihydro-2H-chromen-6-yl]oxy}benzoic Acid Hydrochloride] the EC50 (β3-adrenoceptor [3]) was 23 nM, the EC50 (human β1-adrenoceptor [4]) was greater than 10 µM and the EC50 (human β2-adrenoceptor [5]) was greater than 10 µM.
In the case of `O=C(O)c1ccccc1Oc1ccc2c(c1)CC[C@H](CNC[C@H](O)COc1ccccc1Cl)O2` [Example 39], the melting point is reported as 230 °C.
Work on `O=C(O)c1ccccc1Oc1ccc2c(c1)CC[C@H](CNC[C@H](O)COc1ccc(F)c(Cl)c1)O2` [Example 43] yielded a melting point of 196 to 199 °C.
`O=C(O)c1ccccc1Oc1ccc2c(c1)CC[C@H](CNC[C@H](O)COc1ccc(F)cc1F)O2` [Example 40] showed a melting point of 138 to 142 °C.
With `O=C(O)c1ccccc1Oc1ccc2c(c1)CC[C@H](CNC[C@H](O)COc1ccccc1N1CCOCC1)O2` [Example 42] the melting point was 173 to 176 °C.
`O=C(O)c1cccc(Nc2ccc3c(c2)CC[C@H](CNC[C@H](O)COc2ccccc2)O3)c1` [Example 11] gave an EC50 (β3-adrenoceptor [3]) of 186 nM.
In the case of `COc1cc(C(=O)O)ccc1Oc1ccc2c(c1)CC[C@H](CNC[C@H](O)COc1ccccc1)O2` [Example 12], the EC50 (β3-adrenoceptor [1]) is reported as 270 nM.
`COc1cc(Oc2ccc3c(c2)CC[C@H](CNC[C@H](O)COc2ccccc2)O3)c(C(=O)O)cc1OC` [Example 54] showed an EC50 (human β1-adrenoceptor [4]) of 8 µM and an EC50 (human β2-adrenoceptor [5]) greater than 10 µM.
`O=C(O)c1ccccc1Oc1ccc2c(c1)CC[C@H](CNC[C@H](O)COc1ccccc1C(F)(F)F)O2` [Example 38] gave a melting point of 162 °C.
Work on `O=C(O)c1ccccc1Oc1ccc2c(c1)CC[C@H](CNC[C@H](O)COc1ccccc1)O2` [Example 1, 2-{[(2R)-2-({[(2S)-2-hydroxy-3-phenoxypropyl]amino}methyl)-3,4-dihydro-2H-chromen-6-yl]oxy}benzoic Acid] yielded an EC50 (β3-adrenoceptor [1]) of 26 nM, an EC50 (human β1-adrenoceptor [6]) greater than 10 µM and an EC50 (human β2-adrenoceptor [2]) greater than 10 µM. It also gave an IC50 (human β1-adrenoceptor [7]) greater than 10 µM and an IC50 (human β2-adrenoceptor [8]) of 930 nM.
With `N#Cc1ccc(Nc2ccc3c(c2)CC[C@H](CNC[C@H](O)COc2ccccc2)O3)cc1` [Example 29] the EC50 (β3-adrenoceptor [1]) was 160 nM.
Compound `O=C(O)c1ccccc1Oc1ccc2c(c1)CC[C@H](CNC[C@H](O)COc1ccccc1-c1ccccc1)O2` [Example 37] has an EC50 (β3-adrenoceptor [1]) of 230 nM and a melting point of 175 °C.
